Measurements taken from patent publication US8039420B2, “Fungicidal composition containing acid amide derivative” (Ishihara Sangyo Kaisha, Ltd., priority 2004, dated 2011).

System: Sphaerotheca fuliginea
Assay: Test on Preventive Effect Against Cucumber Powdery Mildew
Settings: 200 ppm, spray on cucumber (Sagamihanpaku) 1.5-leaf stage; area of sporulation 6 to 7 days after inoculation
Procedure: In each test, the controlling index was determined on the basis of the following standards:
Cucumber (cultivar: Sagamihanpaku) was cultivated in a plastic pot having a diameter of 7.5 cm, and when it reached 1.5-leaf stage, 10 ml of a chemical solution having the acid amide derivative of the formula (I) or a salt thereof adjusted to a prescribed concentration, was applied by a spray gun. After the chemical solution dried (the same day as the application or the next day), a suspension of conidia of Sphaerotheca fuliginea was sprayed and inoculated and maintained in a constant temperature chamber at 20° C. From 6 to 7 days after the inoculation, the area of sporulation was investigated, and the controlling index was determined in accordance with the above evaluation standards.

In the case of `Cc1nn(C)c(Cl)c1C(=O)NC(C)(C)C(=O)c1ccccc1` [1-34], the controlling index is reported as 4 (Area of lesions, length of lesions, number of lesions or area of sporulation is less than 10% of non-treated plot).
